Measurements from patent US20220241296A1, “PROCESS FOR THE PREPARATION OF STERILE OPHTHALMIC AQUEOUS FLUTICASONE PROPIONATE FORM A NANOCRYSTALS SUSPENSIONS” (NICOX OPHTHALMICS, INC., priority 2019, published 2022).
“And” between values parts separate entries of the source, which are not always exact repeats. Identical values can stand only once.

Columns and labels:
[1] = Particle size distribution by laser diffraction (Horiba LA-950) during preparation; type: physicochemical; conditions: for particle size (D50—median): materials used in the dissolution test
Description: The particle size of the isolated nanocrystals was evaluated using a laser scattering Particle size distribution analyzer (Horiba LA-950).
4000 g of vehicle 1 were introduced into a 10 L process vessel containing a stir bar, by filtration through a PES 0.2 μm media and were set aside for further use. In a 2 L beaker, 15.04 g of the fluticasone propionate Form A nanocrystals were introduced together with some vehicle 1. […] This concentrated slurry was subject to high-shear, high-speed mixing at 6000±10 RPM for 10 minutes and the particle size distribution was tested by laser diffraction on a Horiba LA-950S2 PSD analyzer.
The 1% w/w fluticasone propionate Form A nanocrystals slurry was subject to high-shear, high-speed mixing at 6000±10 RPM for 10 minutes and the particle size distribution was tested by laser diffraction using a Horiba LA-95052 PSD analyzer.
The particle size distribution was tested by laser diffraction using a Horiba LA-950S2 PSD analyzer.

[2] = In vitro dissolution test (compartment diffusion through dialysis membrane, sink condition); type: physicochemical
Description: The dissolution rate of the Fluticasone propionate form A nanocrystals of the nanosuspension of the invention was assessed and compared to the dissolution rate of a standard Fluticasone propionate form 1 micronized material (reference sample). Dissolution profiles of nanocrystals of Fluticasone propionate form A of two nanosuspensions of the invention and of Fluticasone propionate form 1 micronized were performed using a dissolution method. The study was performed using a compartment diffusion analysis through a dialysis membrane and sink condition. The sink condition was achieved through the use of a receptor fluid containing 30 mM phosphate buffer, pH 7.4 with 5% HPβCD cyclodextrins and also by a complete replacement of the buffer every 24 hours to stay below the saturation point. The saturation point was estimated to be 5 μg/g under those experimental conditions and the measurements performed as well as the buffer replacement have shown a maximum concentration of 1.5 μg/g. The study was conducted at a temperature of 37° C. The details of the dissolution test method are provided below: A 5-fold dilution with the formulation vehicle (placebo solution containing all the formulation excipients including the surfactants) of two 0.1% w/w Fluticasone propionate form A nanosuspensions was conducted to obtain a final concentration of 0.02% w/w Fluticasone propionate inside the dialysis device. Fluticasone propionate form 1 micronized was suspended in the same phosphate buffer used in the receiving compartment of the dialysis system. Fluticasone propionate release was carried at 1-2 RPM. […] These aliquots were immediately centrifuged and the measurements were performed by HPLC

[3] = 14-day repeated dose toxicokinetic study, topical application to eyelid margin; design: species or system Beagle dogs; conditions: dog, in vivo; for Cmax / Tmax / AUC(0-t) / AUC0-24 h: Beagle, topical or ocular; for AUC(0-t): AUC0-24 h
Source text: The purpose of this study was to evaluate the toxicokinetic of fluticasone propionate Form A nanosuspensions of the invention (see Table 10 below) administered via topical application directly to the rim (margin) of upper and lower eyelids of both eyes of Beagle dogs.
Fifty naïve Beagle dogs (25 males and 25 females), approximately 5-6 months old and weighing 5.7 to 8.8 kg for males and females at the outset of the study were assigned to treatment groups (groups 1-4) and to vehicle group.
Male and female Beagle dogs were dosed with fluticasone propionate at 1.6, 9.6, and 32 μg/day (bilateral QD topical application) or at 64 μg/day (bilateral BID topical application) via eye lid applicator directly to the upper and lower eyelids of both eyes once or twice daily (minimum of 6 hours between doses) for 14 consecutive days.
Blood for toxicokinetic evaluation was collected from all animals at selected time points on Days 1 and 14.
Ophthalmology examinations were performed prior to treatment initiation, during the first and second weeks of dosing and during the last week of recovery. Eyes were scored once daily according to the modified Draize scale.
The reversibility of the effects of Fluticasone Propionate nanosuspension was assessed with a 14-day recovery period.

[4] = particle size at preparation, Horiba LA-950
[5] = time point 3 h, 37° C., listed as Fluticasone propionate form A nanocrystals
[6] = time point 5 h, 37° C., listed as Fluticasone propionate form A nanocrystals
[7] = time point 19 h, 37° C., listed as Fluticasone propionate form A nanocrystals
[8] = time point 24 h, 37° C., listed as Fluticasone propionate form A nanocrystals
[9] = time point 48 h, 37° C., listed as Fluticasone propionate form A nanocrystals
[10] = time point 72 h, 37° C., listed as Fluticasone propionate form A nanocrystals

## CCC(=O)O[C@]1(C(=O)SCF)[C@H](C)C[C@H]2[C@@H]3C[C@H](F)C4=CC(=O)C=C[C@]4(C)[C@@]3(F)[C@@H](O)C[C@@]21C [fluticasone propionate]
[1]
  particle size (D50—median): 0.434 μm
[1]; [4]
  D50: 0.2153 μm
  D90: 0.6073 μm
[2]; despite different particle size
  dissolution profile compared with Fluticasone propionate form 1 micronized material: similar
[2]; time point 1 h, 37° C.
  % Dissolution Average %: 0.0%
  % Dissolution Tube #1: 0.0%
  % Dissolution Tube #2: 0.0%
  % Dissolution Tube #3: 0.0%
[2]; [5]
  % Dissolution Average %: 0.8% and 0.7%
  % Dissolution Tube #1: 0.2% and 0.6%
  % Dissolution Tube #2: 1.4% and 0.5%
  % Dissolution Tube #3: 0.7% and 0.8%
[2]; [6]
  % Dissolution Average %: 2.2% and 2.3%
  % Dissolution Tube #1: 1.3% and 2.4%
  % Dissolution Tube #2: 2.8% and 2.0%
  % Dissolution Tube #3: 2.4% and 2.6%
[2]; [7]
  % Dissolution Average %: 17.8% and 19.0%
  % Dissolution Tube #1: 14.5% and 19.0%
  % Dissolution Tube #2: 20.4% and 18.2%
  % Dissolution Tube #3: 18.7% and 19.7%
[2]; [8]
  % Dissolution Average %: 21.3% and 22.4%
  % Dissolution Tube #1: 17.5% and 22.4%
  % Dissolution Tube #2: 24.0% and 21.5%
  % Dissolution Tube #3: 22.4% and 23.2%
[2]; [9]
  % Dissolution Average %: 46.2% and 48.5%
  % Dissolution Tube #1: 38.7% and 49.1%
  % Dissolution Tube #2: 51.4% and 45.6%
  % Dissolution Tube #3: 48.6% and 50.9%
[2]; [10]
  % Dissolution Average %: 70.5% and 73.9%
  % Dissolution Tube #1: 59.6% and 75.1%
  % Dissolution Tube #2: 78.1% and 69.1%
  % Dissolution Tube #3: 74.0% and 77.7%

## CCC(=O)O[C@]1(C(=O)SCF)[C@H](C)C[C@H]2[C@@H]3C[C@H](F)C4=CC(=O)C=C[C@]4(C)[C@@]3(F)[C@@H](O)C[C@@]21C [Micronized Fluticasone propionate form 1, fluticasone propionate]
[1]; listed as Fluticasone propionate form 1 micronized material
  particle size (D50—median): 4.64 μm
[1]; listed as micronized Fluticasone propionate form 1
  particle size (D50—median): 4.64 μm
[2]; time point 3 h, 37° C.
  % Dissolution Average %: 0.7%
  % Dissolution Tube #1: 0.8%
  % Dissolution Tube #2: 0.5%
  % Dissolution Tube #3: 0.9%
[2]; time point 5 h, 37° C.
  % Dissolution Average %: 2.6%
  % Dissolution Tube #1: 2.9%
  % Dissolution Tube #2: 1.9%
  % Dissolution Tube #3: 3.0%
[2]; time point 19 h, 37° C.
  % Dissolution Average %: 19.4%
  % Dissolution Tube #1: 20.9%
  % Dissolution Tube #2: 17.1%
  % Dissolution Tube #3: 20.3%
[2]; time point 24 h, 37° C.
  % Dissolution Average %: 22.6%
  % Dissolution Tube #1: 24.2%
  % Dissolution Tube #2: 20.2%
  % Dissolution Tube #3: 23.5%
[2]; time point 48 h, 37° C.
  % Dissolution Average %: 48.6%
  % Dissolution Tube #1: 51.1%
  % Dissolution Tube #2: 44.0%
  % Dissolution Tube #3: 50.6%
[2]; time point 72 h, 37° C.
  % Dissolution Average %: 73.4%
  % Dissolution Tube #1: 77.4%
  % Dissolution Tube #2: 66.7%
  % Dissolution Tube #3: 76.2%

## CCC(=O)O[C@]1(C(=O)SCF)[C@H](C)C[C@H]2[C@@H]3C[C@H](F)C4=CC(=O)C=C[C@]4(C)[C@@]3(F)[C@@H](O)C[C@@]21C [Fluticasone Propionate, fluticasone propionate]
[2]; receptor fluid: 30 mM phosphate buffer, pH 7.4 with 5% HPβCD, 37° C.
  saturation point: ~5 µg/g
[3]; both sexes, 1.6 ug/day, Cmax
  Cmax: 0.0281 ± 0.0266 ng/mL
[3]; both sexes, 1.6 ug/day, Tmax
  Tmax: 45 min
[3]; both sexes, 9.6 ug/day
  AUC(0-t): 0.191 ± 0.335 ng·h/mL
[3]; both sexes, 9.6 ug/day, Cmax
  Cmax: 0.0608 ± 0.0487 ng/mL
[3]; both sexes, 9.6 ug/day, Tmax
  Tmax: 30 min
[3]; both sexes, 32 ug/day
  AUC(0-t): 0.481 ± 0.361 ng·h/mL
[3]; both sexes, 32 ug/day, Cmax
  Cmax: 0.13 ± 0.155 ng/mL
[3]; both sexes, 32 ug/day, Tmax
  Tmax: 30 min
[3]; both sexes, 64 ug/day
  AUC(0-t): 0.914 ± 0.413 ng·h/mL
[3]; both, 1.6 ug/day
  Cmax: 0.0324 ± 0.0264 ng/mL
  Tmax: 30 min
[3]; both, 9.6 ug/day
  AUC0-24 h: 0.101 ± 0.102 ng·h/mL
  Cmax: 0.0798 ± 0.07 ng/mL
  Tmax: 30 min
[3]; both, 32 ug/day
  AUC0-24 h: 0.482 ± 0.407 ng·h/mL
  Cmax: 0.25 ± 0.219 ng/mL
  Tmax: 30 min
[3]; both, 64 ug/day
  AUC0-24 h: 0.76 ± 0.188 ng·h/mL
[3]
  exposure versus dose: dose-dependent
  gender-related differences in exposure: no discernable gender-related differences in exposure
